Measurements: article PMC1976386 (Molecular Microbiology, 2007)

Molecular target: CaKip1p (Candida albicans, UniProt A0A1D8PT88)
Settings: read-out: Value

Compound: Nc1ncnc2c1ncn2[C@@H]1O[C@H](COP(=O)(O)OP(=O)(O)OP(=O)(O)O)[C@@H](O)[C@H]1O [ATP]
- Km: 7.4 ± 0.7 µM
